Test results published in patent US20060063759A1, “Tricyclic steroid hormone nuclear receptor modulators” (priority 2002, published 2006).

Columns and labels:
human MR = target: T1, human MR (Homo sapiens, UniProt P08235); test: Mineralocorticoid Receptor Binding Assay ([3H]-aldosterone); settings: [3H]-aldosterone binding, human MR expressed in Sf9 cells; read-out: MR Ki
T1 construct: The full length human MR gene is cloned from a human kidney or human brain cDNA library; His tag from the pAcHLT vector (own knowledge); made in house; host or cells: Sf9 insect cells (baculovirus, pAcHLT transfer vector)
T1 sequence (P08235 1-984): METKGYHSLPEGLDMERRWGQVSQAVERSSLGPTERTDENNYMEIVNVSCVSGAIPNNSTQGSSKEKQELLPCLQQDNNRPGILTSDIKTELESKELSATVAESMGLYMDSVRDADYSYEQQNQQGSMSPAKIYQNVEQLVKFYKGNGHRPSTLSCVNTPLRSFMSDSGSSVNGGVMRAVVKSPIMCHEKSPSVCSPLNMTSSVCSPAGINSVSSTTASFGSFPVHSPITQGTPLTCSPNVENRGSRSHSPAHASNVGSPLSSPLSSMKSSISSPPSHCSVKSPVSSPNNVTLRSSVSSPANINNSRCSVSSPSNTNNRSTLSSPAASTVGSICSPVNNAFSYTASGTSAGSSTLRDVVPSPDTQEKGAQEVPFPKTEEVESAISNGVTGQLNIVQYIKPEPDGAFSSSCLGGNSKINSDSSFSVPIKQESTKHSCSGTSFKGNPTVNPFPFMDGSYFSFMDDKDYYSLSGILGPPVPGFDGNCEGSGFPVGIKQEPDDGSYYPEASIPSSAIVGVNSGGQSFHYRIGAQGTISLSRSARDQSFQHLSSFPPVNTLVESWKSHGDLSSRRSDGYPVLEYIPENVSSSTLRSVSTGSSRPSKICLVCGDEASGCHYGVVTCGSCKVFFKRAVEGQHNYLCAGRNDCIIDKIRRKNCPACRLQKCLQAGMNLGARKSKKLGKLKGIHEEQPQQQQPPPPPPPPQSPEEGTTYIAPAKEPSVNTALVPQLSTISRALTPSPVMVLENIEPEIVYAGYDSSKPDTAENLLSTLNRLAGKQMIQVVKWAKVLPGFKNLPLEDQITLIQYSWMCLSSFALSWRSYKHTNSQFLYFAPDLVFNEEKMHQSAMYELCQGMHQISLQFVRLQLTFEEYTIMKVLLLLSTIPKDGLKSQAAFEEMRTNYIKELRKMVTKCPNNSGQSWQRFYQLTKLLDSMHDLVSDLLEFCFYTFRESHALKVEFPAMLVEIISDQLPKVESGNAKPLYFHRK
How it was run: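 Receptor source: freeze-thaw lysate of baculovirus-infected Sf9 cells carrying full-length human MR, 20-25 μg protein. Incubation ~16 h at 4 °C with shaking, pH 7.5 buffer containing 30 mM sodium molybdate and 10% glycerol.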

glucocorticoid receptor = target: T2, glucocorticoid receptor (Homo sapiens, UniProt P04150); test: Glucocorticoid Receptor Binding Assay ([3H]-dexamethasone, A549 cell extract); settings: [3H]-dexamethasone binding, read-out: GR Ki
T2 construct: containing 50-200 ug of A549 cell extract and 1.86 nM [^3H]-dexamethasone; host or cells: A549 human lung epithelial cells (sonicated cell extract)
T2 sequence (P04150 1-777): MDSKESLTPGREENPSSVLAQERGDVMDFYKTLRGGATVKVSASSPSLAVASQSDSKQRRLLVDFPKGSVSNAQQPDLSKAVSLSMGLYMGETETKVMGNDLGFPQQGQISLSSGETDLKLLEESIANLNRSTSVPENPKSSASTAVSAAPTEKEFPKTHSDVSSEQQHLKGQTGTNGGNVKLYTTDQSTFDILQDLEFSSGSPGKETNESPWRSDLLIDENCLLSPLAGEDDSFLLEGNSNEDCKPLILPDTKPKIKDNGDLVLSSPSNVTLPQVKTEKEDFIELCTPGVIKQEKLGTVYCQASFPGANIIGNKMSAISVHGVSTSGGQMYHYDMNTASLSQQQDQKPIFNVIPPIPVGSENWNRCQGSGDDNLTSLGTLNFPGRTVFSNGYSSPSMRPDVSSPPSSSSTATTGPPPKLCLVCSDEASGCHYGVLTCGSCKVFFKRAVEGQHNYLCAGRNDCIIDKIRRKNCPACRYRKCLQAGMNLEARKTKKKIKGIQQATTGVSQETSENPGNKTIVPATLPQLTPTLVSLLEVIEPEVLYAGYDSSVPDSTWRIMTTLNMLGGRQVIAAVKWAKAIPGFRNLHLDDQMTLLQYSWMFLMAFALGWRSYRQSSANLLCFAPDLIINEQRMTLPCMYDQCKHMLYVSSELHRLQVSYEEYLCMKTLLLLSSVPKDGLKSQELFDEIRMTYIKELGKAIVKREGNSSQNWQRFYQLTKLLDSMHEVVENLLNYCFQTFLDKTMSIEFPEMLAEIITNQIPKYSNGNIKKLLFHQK
How it was run: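 Displacement of [3H]-dexamethasone (1.86 nM) from glucocorticoid receptor in sonicated A549 lung epithelial cell extracts, 16 h at 4 °C, pH 7.2 molybdate-containing buffer. Bound radioactivity was scintillation-counted after charcoal/dextran stripping of free ligand.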

SMILES	Ki (human MR) [nM]	Ki (glucocorticoid receptor) [nM]
CS(=O)(=O)Nc1cccc(/C=C2/c3ccccc3CCc3cc(C#N)ccc32)c1 [Example 342]	< 500	< 500
CS(=O)(=O)Nc1cccc(/C=C2\c3ccccc3CCc3cc(-c4nn[nH]n4)ccc32)c1 [Example 343]	< 1000	< 500
CS(=O)(=O)Nc1cccc(C=C2c3ccccc3CCc3cc(F)cc(F)c32)c1 [Example 344]	< 500	< 500
CS(=O)(=O)NCc1ccc(/C=C2/c3ccccc3CCc3cc(Cl)ccc32)cc1 [Example 345]	< 500	< 10000
CS(=O)(=O)NCc1ccc(/C=C2\c3ccccc3CCc3cc(Cl)ccc32)cc1 [Example 346]	< 500	< 10000
COc1ccc2c(c1)/C(=C/c1cccc(NS(C)(=O)=O)c1)c1ccccc1CC2 [Example 347]	< 500	< 500
COc1ccc2c(c1)/C(=C\c1cccc(NS(C)(=O)=O)c1)c1ccccc1CC2 [Example 348]	< 500	< 500
COc1ccc2c(c1)[C@@H](Cc1cccc(NS(C)(=O)=O)c1)c1ccccc1CC2 [Example 349]	< 500	< 500
CS(=O)(=O)Nc1cccc(/C=C2/c3ccccc3CCc3ccc(O)cc32)c1 [Example 350]	< 500	< 500
COc1ccc2c(c1)CCc1ccccc1[C@@H]2Cc1cccc(NS(C)(=O)=O)c1 [Example 351]	< 500	< 500
CS(=O)(=O)Nc1cccc(/C=C2\c3ccccc3CCc3ccc(O)cc32)c1 [Example 352]	< 500	< 500
COc1cccc2c1C(=Cc1cccc(NS(C)(=O)=O)c1)c1ccccc1CC2 [Example 353]	< 500	< 500
CS(=O)(=O)Nc1cccc(/C=C2\c3ccccc3CCc3cc(F)ccc32)c1 [Example 355]	< 500	< 500
CS(=O)(=O)Nc1cccc(C=C2c3ccc(F)cc3CCc3cc(F)ccc32)c1 [Example 360]	< 500	< 1000
N#Cc1cccc2c1CCc1ccccc1/C2=C/c1cccc(O)c1 [Example 363]	< 500	< 500
N#Cc1cccc2c1CCc1ccccc1/C2=C\c1cccc(O)c1 [Example 364]	< 500	< 500

SMILES	Ki (human MR) [nM]	Ki (glucocorticoid receptor) [nM]
CS(=O)(=O)Nc1cccc(/C=C2\c3ccccc3CCc3cccc(Cl)c32)c1 [Example 365]	< 500	< 500
CS(=O)(=O)Nc1cccc(/C=C2/c3ccccc3CCc3cccc(Cl)c32)c1 [Example 366]	< 500	< 500
Oc1cccc(/C=C2/c3ccccc3CCc3cccc(Cl)c32)c1 [Example 367]	< 500	< 10000
COc1cccc(/C=C2\c3ccccc3CCc3c(O)cccc32)c1 [Example 368]	< 500	< 10000
COc1cccc(/C=C2/c3ccccc3CCc3c(O)cccc32)c1 [Example 369]	< 500	< 10000
Oc1cccc(/C=C2\c3ccccc3CCc3cccc(Cl)c32)c1 [Example 370]	< 500	< 1000
Oc1cccc(/C=C2/c3ccccc3CCc3c(Br)cccc32)c1 [Example 371]	< 500	< 500
Oc1cccc(/C=C2\c3ccccc3CCc3c(Br)cccc32)c1 [Example 372]	< 500	< 1000
Oc1cccc(C=C2c3ccccc3CCc3c2cccc3C(Br)Br)c1 [Example 373]	< 500	< 10000
CS(=O)(=O)Nc1cccc(/C=C2/c3ccccc3CCc3cc(C(F)F)ccc32)c1 [Example 374]	< 500	< 500
CS(=O)(=O)Nc1cccc(/C=C2\c3ccccc3CCc3cc(C(F)F)ccc32)c1 [Example 375]	< 500	< 500
Oc1cccc(/C=C2\c3ccccc3CCc3c(O)cccc32)c1 [Example 376]	< 500	< 500
Oc1cccc(/C=C2/c3ccccc3CCc3c(O)cccc32)c1 [Example 377]	< 500	< 10000
O=Cc1cccc2c1CCc1ccccc1/C2=C\c1cccc(O)c1 [Example 378]	< 500	< 1000
O=Cc1cccc2c1CCc1ccccc1/C2=C/c1cccc(O)c1 [Example 379]	< 500	< 10000

Continued, values first:

Ki (human MR) [nM]	Ki (glucocorticoid receptor) [nM]	SMILES
< 500	< 500	CSc1cccc2c1CCc1ccccc1C2=Cc1cccc(NS(C)(=O)=O)c1 [Example 319]
< 500	< 500	CSc1ccc2c(c1)C(=Cc1cccc(NS(C)(=O)=O)c1)c1ccccc1CC2 [Example 320]
< 500	< 500	CS(=O)(=O)Nc1cccc(C=C2c3ccccc3CCc3ccc(S(C)(=O)=O)cc32)c1 [Example 321]
< 500	< 500	CSc1ccc2c(c1)/C(=C\c1cccc(NS(C)(=O)=O)c1)c1ccccc1CC2 [Example 322]
< 500	< 500	CS(=O)(=O)Nc1cccc(/C=C2/c3ccccc3CCc3ccc(S(C)(=O)=O)cc32)c1 [Example 323]
< 500	< 500	Cc1ccc2c(c1)CCc1cc(C)ccc1C2=Cc1cccc(NS(C)(=O)=O)c1 [Example 325]
< 500	< 500	Cc1ccc2c(c1)CCc1ccccc1/C2=C/c1cccc(NS(C)(=O)=O)c1 [Example 326]
< 500	< 500	Cc1ccc2c(c1)CCc1ccccc1/C2=C\c1cccc(NS(C)(=O)=O)c1 [Example 327]
< 500	< 500	CS(=O)(=O)Nc1cccc(C=C2c3ccccc3CCc3cc(OCCc4ccccc4)ccc32)c1 [Example 330]
< 500	< 500	COc1ccc2c(c1)CCc1cc(OC)ccc1C2=Cc1ccc(OCCN2CCCCC2)cc1 [Example 333]
< 500	< 500	Oc1cccc(/C=C2/c3ccccc3CCc3cc(C(F)F)ccc32)c1 [Example 334]
< 500	< 500	Oc1cccc(/C=C2\c3ccccc3CCc3cc(C(F)F)ccc32)c1 [Example 335]
< 500	< 10000	N#Cc1ccc(C=C2c3ccccc3CCc3cc(F)ccc32)cc1F [Example 336]
< 500	< 1000	CS(=O)(=O)Nc1ccc2c(c1)CCc1ccccc1/C2=C\c1cccc(O)c1 [Example 338]
< 500	< 500	CS(=O)(=O)Nc1cccc(/C=C2\c3ccccc3CCc3cc(NS(C)(=O)=O)ccc32)c1 [Example 339]
< 500	< 500	N#Cc1ccc2c(c1)CCc1ccccc1/C2=C/c1cccc(O)c1 [Example 340]
< 500	< 500	N#Cc1ccc2c(c1)CCc1ccccc1/C2=C\c1cccc(O)c1 [Example 341]
